Data on seven compounds can be found in patent publication EP2490021A1, “Modulators of PRR and GPCR signalling” (Biotempt B.V., priority 2011, dated 2012).

Entries after “also recorded” stand apart in the source; their conditions may differ. Where a SMILES comes first, the peptide text is derived from it.

What all share (type): cell-based, human
Assay [1] concerns TLR-4. The experiment in a line: p38 MAPK phosphorylation in hPBMC challenged with LPS (Example 4). The following applies: 2 µg/ml LPS; for p38 MAPK phosphorylation: low concentrations of peptide, compared to control (LPS stimulated, no peptide added); for TLR-4 mediated signalling induced by LPS, p38 MAPK phosphorylation status: peptide at 20 ng/ml. The method, then: (§1) Subsequently PMBC were incubated with 1.3, 3.2, 8, 20 and 50 ng/ml peptide AQGV , LQGV, AQG, LQG, QGV, AQ, LQ, GV or QG (peptide, which was freshly prepared as a 20 mg/ml stock solution in bidistilled water) or treated with the cell culture medium alone for 10 min.
(§2) hPMBC were challenged with 2 µg/ml TLR-4 ligand LPS for 1 min, 5 min, 10 min and 20 min.

In assay [2] the test system is TLR-4. Kind of assay: PKB phosphorylation in hPBMC challenged with LPS (Example 4). To be noted: 2 µg/ml LPS. As to the method:
as §1, §2

For assay [3], the system named is neutrophils. Kind of assay: Phosphoprotein array, LPS-stimulated neutrophils. To be noted: 1 µg/mL LPS, pre-stimulated with 20 ng/mL. The method, then: (§3) Blood was drawn from healthy volunteers into tubes containing citrate as an anticoagulant. Neutrophils were isolated by using a Polymorphprep kit (Nicomed, Oslo, Norway) according to the manufacturer's instructions; monocytes were purified with magnetic beads (Miltenyi Biotech). The purity of the cells, as assessed by flow cytometry (anti-CD45, 14, DR, and CD66b), was > 93%. For each cell type, samples from two different donors were examined.
(§4) 5x10^6 cells were incubated in the presence of 1 µg/mL LPS (E.coli O111:B4, Sigma-Aldrich) or pre-stimulated with 20 ng/mL of EA-230 (peptide AQGV) and then incubated in the presence of 1 µg/mL LPS for 0, 5, 15 and 30 minutes (37°C, 5% CO2). At the end of the incubation period, the cells were put on ice, and proteins were extracted using Phosphosafe reagent (Novagen), according to the recommendations of the manufacturer. The total protein concentration was measured using a conventional Lowry assay (Pierce).
(§5) To determine the relative levels of protein phosphorylation, a human PhosphoKinase array (RnD Systems) was used according to the recommendations of the manufacturer. 200 µg of protein were used per array. Spot pixel density was determined for each protein and ratios to the controls (no LPS and no EA stimulation) were measured.

The next assay deals with monocytes. The experiment in a line: Phosphoprotein array, LPS-stimulated monocytes. The following applies: 1 µg/mL LPS, pre-incubation with 20 ng/mL. As to the method: as §3, §4, §5
The test system of another assay is NF-kB. The experiment in a line: NF-kB p50 and p65 subunit activity ELISA, LPS-stimulated neutrophils. The following applies: 1 µg/mL LPS 15 minutes, both concentrations, p=0.03 vs LPS alone. The method, then:
(§6) Blood was drawn from 2 healthy volunteers into tubes containing citrate as an anticoagulant. Neutrophils were isolated by using a Polymorphprep kit (Nicomed, Oslo, Norway) according to the manufacturer's instructions. The purity of the cells, as assessed by flow cytometry (anti-CD45, 14, DR, and CD66b), was > 93%.
[…] At the end of the incubation period, the cells were put on ice, and nuclear proteins were extracted using Nuclear Extraction Kit (Cayman chemicals, Ann Harbor, USA), according to the recommendations of the manufacturer. The total protein concentration was measured using a conventional Lowry assay (Pierce).
P50 and p65 NF-kB subunit activity was determined by ELISA (Cayman chemicals). This assay allows the determination of the true NF-kB activity by measuring the binding of its subunits to specific consensus sequences. This assay is similar to the traditional EMSA, though more sensitive. 10 µg of proteins were used per assay. Analysis was performed in duplicate.
In general terms: ELISA stands for enzyme-linked immunosorbent assay.

Assay [4] deals with neutrophils. The experiment in a line: LPS-driven cytokine production by neutrophils. The following applies: 1 µg/mL LPS 24 hours, both concentrations (20 or 50 ng/mL), p=0.01 versus LPS. The method, then: as §6
5x10^5 cells were incubated in the presence of 1 µg/mL LPS (E.coli O111:B4, Sigma-Aldrich) or pre-stimulated with 20 or 50 ng/mL of EA-230 (peptide AQGV) and then incubated in the presence of 1 µg/mL LPS for 24 hours (37°C, 5% CO2). At the end of the incubation period, supernatants were harvested and concentrations of TNF-α, IL-6, and IL-8 were measured by flow cytometry using Bender Flowcytomics kit (Bender Med systems, Burlingame, USA) according to the recommendations of the manufacturer. Concentrations of IL-10 were determined by ELISA (RnD Systems). Measurements were done in duplicate.

Assay [5] relates to TLR-4. Kind of assay: Kinase phosphorylation in PBMC-derived monocytes challenged with TLR-4 ligand LPS. To be noted: 2 µg/ml LPS, at 20 ng/ml and at 50 ng/ml. As to the method:
(§7) PMBC-derived monocytes were isolated from healthy volunteers (hPBMCs) according to routine procedures^1. […]
(§8) Following stimulation, the phosphorylation status of p38MAPK, JNK, PKB, and P42/p44MAPK/ERK1,2 was analysed^3. Results were corrected for differences using co-measurement of β-actin^4.

The test system of another assay is NOD. Kind of assay: Kinase phosphorylation in PBMC-derived monocytes challenged with NOD ligand peptidoglycan. The following applies: 2 µg/ml PGN, at 50 ng/ml. As to the method: as §7, §8
In another assay the test system is FPR. Kind of assay: Kinase phosphorylation in PBMC-derived monocytes challenged with fMLP. The following applies: 1 µM fmlp, at both 20 ng/ml and 50 ng/ml. The method, then: PMBC-derived monocytes were isolated from healthy volunteers (hPBMCs) according to routine procedures^1. Subsequently PMBC were incubated with 20 ng/ml peptide AQGV (Biotempt peptide, which was freshly prepared as a 20 mg/ml stock solution in bidistilled water) or treated with the cell culture medium alone for 10 min. hPMBC were challenged with: • 1) 2 µg/ml TLR-4 ligand LPS ^2 for 1 min, 5 min, 10 min and 20 min, • 2) 2 µg/ml NOD ligand peptidoglycan (PGN) for 1 min, 5 min, 10 min and 20 min, or • 3) 1 µM fmlp (formyl-Met-Leu-Phe) for 1 min, 5 min, 10 min and 20 min.
as §8

The mark [6] stands for this setting: low concentrations, i.e. below 20 ng/ml, compared to control (LPS stimulated, no peptide added).

On to `CC(C)C[C@H](N)C(=O)N[C@@H](CCC(N)=O)C(=O)NCC(=O)O` [LQG] (H-Leu-Gln-Gly-OH), for which, in the assay with TLR-4 [1], the “p38 MAPK phosphorylation” value is on record as “already modulated” and the “TLR-4 mediated signalling induced by LPS, p38 MAPK phosphorylation status” value is recorded as “initial downregulation”.

Regarding `CC(C)C[C@H](N)C(=O)N[C@@H](CCC(N)=O)C(=O)O` [LQ] (H-Leu-Gln-OH), the “TLR-4 mediated signalling induced by LPS, PKB phosphorylation status” value with TLR-4 [2] (setting [6]) is reported as “already display a modulation”; with TLR-4 [2] (peptide at 20 ng/ml), “inhibited”.

Take `CC(C)[C@H](NC(=O)CNC(=O)[C@@H](N)CCC(N)=O)C(=O)O` [QGV] (H-Gln-Gly-Val-OH): the “TLR-4 mediated signalling induced by LPS, PKB phosphorylation status” value in the assay with TLR-4 [2] (setting [6]) is recorded as “already display a modulation”; in the assay with TLR-4 [2] (peptide at 20 ng/ml), “at least initial, inhibition”. Besides, in the assay on TLR-4 [1], the “p38 MAPK phosphorylation” value is given as “already modulated”.

On to `C[C@H](N)C(=O)N[C@@H](CCC(N)=O)C(=O)O` [AQ] (H-Ala-Gln-OH), for which the figures for the “TLR-4 mediated signalling induced by LPS, PKB phosphorylation status” value in the assay with TLR-4 [2] (setting [6]) and in the assay with TLR-4 [2] (peptide at 20 ng/ml) were “already display a modulation” and “inhibited”, respectively. Also, the “p38 MAPK phosphorylation” value in the assay with TLR-4 [1] is listed as “already modulated”. Also, the “TLR-4 mediated signalling induced by LPS, p38 MAPK phosphorylation status” value with TLR-4 [1] is “slight overall downregulation”.

Take `CC(C)[C@H](NC(=O)CNC(=O)[C@H](CCC(N)=O)NC(=O)[C@H](C)N)C(=O)O` [AQGV] (H-AQGV-OH): the eNOS phosphorylation result in the assay on neutrophils [3] was “increase”. Also, in the assay with neutrophils [3] (at 15 minutes), the “LPS-driven phosphorylation of CREB” value is reported as “blunted”, the “LPS-driven phosphorylation of ERK1/2” value is given as “blunted”, the “LPS-driven phosphorylation of GSK 3a/b” value was “blunted” and the “LPS-driven phosphorylation of MEK1/2” value was “blunted”. Further, in the assay with neutrophils [3] (at 15 minutes), the “LPS-driven phosphorylation of P38 MAPK” value is recorded as “blunted”. Moreover, in the assay with monocytes, the eNOS phosphorylation result is listed as “strongly stimulated”. In the assay with monocytes (at 15 minutes), the “LPS-driven phosphorylation of AMPK” value is on record as “prevented this effect”, the “LPS-driven phosphorylation of ERK1/2” value is “prevented this effect”, the “LPS-driven phosphorylation of JNK” value is given as “prevented this effect” and the “LPS-driven phosphorylation of MSK” value was “prevented this effect”. For the same compound, in the assay with monocytes (at 15 minutes), the “LPS-driven phosphorylation of P38 MAPK” value is recorded as “prevented this effect” and the “LPS-driven phosphorylation of PKB/AKT” value is on record as “prevented this effect”. Besides, in the assay on NF-kB, the “LPS induced NF-kB p50 activity” value is listed as “reduced this LPS induced activation” and the “LPS induced NF-kB p65 activity” value was “reduced this LPS induced activation”. In the assay on neutrophils [4], the “LPS induced production of IL-6” value is given as “reduced the cytokine production almost to control values”, the “LPS induced production of IL-8” value was “reduced the cytokine production almost to control values”, the “LPS induced production of IL-10” value was “reduced the cytokine production almost to control values” and the “LPS induced production of TNF-α” value is reported as “reduced the cytokine production almost to control values”. Also, in the assay with TLR-4 [5], the “TLR-4 mediated signalling induced by LPS, JNK phosphorylation status” value is reported as “reduced”; the “TLR-4 mediated signalling induced by LPS, P42/p44MAPK/ERK1,2 phosphorylation status” value was “reduced”; the “TLR-4 mediated signalling induced by LPS, PKB phosphorylation status” value is “reduced”; the “TLR-4 mediated signalling induced by LPS, p38MAPK phosphorylation status” value is given as “reduced”. In the assay with NOD, the “NOD-signalling induced by peptidoglycan, JNK phosphorylation status” value is on record as “seemingly stimulates”; the “NOD-signalling induced by peptidoglycan, P42/p44MAPK/ERK1,2 phosphorylation status” value is on record as “seemingly stimulates”; the “NOD-signalling induced by peptidoglycan, PKB phosphorylation status” value is listed as “seemingly stimulates”; the “NOD-signalling induced by peptidoglycan, p38MAPK phosphorylation status” value is reported as “seemingly stimulates”. In the assay with FPR, the “FPR signalling induced by fMLP” value was “slightly attenuated”; the “FPR signalling induced by fMLP, PKB phosphorylation” value is “induction of PKB phosphorylation was initially seen, followed by downregulation”; the “FPR signalling induced by fMLP, p38MAPK phosphorylation” value is “downregulation”. Further, the “TLR-4 mediated signalling induced by LPS, PKB phosphorylation status” value in the assay on TLR-4 [2] (setting [6]) is given as “already display a modulation”. For the same compound, in the assay on TLR-4 [2] (peptide at 20 ng/ml), the “TLR-4 mediated signalling induced by LPS, PKB phosphorylation status” value is “reduced”. Moreover, in the assay with TLR-4 [1], the “p38 MAPK phosphorylation” value is recorded as “already modulated” and the “TLR-4 mediated signalling induced by LPS, p38 MAPK phosphorylation status” value is “initial downregulation”.

Regarding `CC(C)C[C@H](N)C(=O)N[C@@H](CCC(N)=O)C(=O)NCC(=O)N[C@H](C(=O)O)C(C)C` [LQGV] (H-LQGV-OH), the “TLR-4 mediated signalling induced by LPS, PKB phosphorylation status” value with TLR-4 [2] (peptide at 20 ng/ml) is “reduced; also recorded: significantly downregulated”. In the assay on TLR-4 [1], the “p38 MAPK phosphorylation” value is recorded as “already modulated” and the “TLR-4 mediated signalling induced by LPS, p38 MAPK phosphorylation status” value is “initial downregulation”.

Consider `NC(=O)CC[C@H](N)C(=O)NCC(=O)O` [QG] (H-Gln-Gly-OH), for which, in the assay with TLR-4 [1], the “p38 MAPK phosphorylation” value was “already modulated” and the “TLR-4 mediated signalling induced by LPS, p38 MAPK phosphorylation status” value is listed as “slight upregulation”.
